The experiment concerns the target human-KAT6A (MYST domain 507-778 aa) (Homo sapiens (Human), UniProt Q92794). Kind of experiment: KAT6A biochemical assay (TR-FRET). The conditions noted are these: for inhibition at 1 µM: reported where IC50 could not be determined, read-out: Percent inhibition at specific concentration (KAT6A); for pIC50: TR-FRET, histone H4 peptide 200 nM, acetyl-CoA 600 nM, read-out: KAT6A IC50. The method in brief: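 KAT6A MYST domain preincubated with compound 30 min at 25° C, then reacted 60 min at 25° C with 200 nM biotin-H4 peptide and 600 nM acetyl-CoA (final). Europium anti-acetyl-lysine/streptavidin-APC TR-FRET read (Ex 340, Em 615/665 nm); % inhibition from 665/615 ratio, IC50 by sigmoidal fit.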

pIC50: −log10 of the molar value.

Chain of human-KAT6A (MYST domain 507-778 aa) (Q92794 507-778): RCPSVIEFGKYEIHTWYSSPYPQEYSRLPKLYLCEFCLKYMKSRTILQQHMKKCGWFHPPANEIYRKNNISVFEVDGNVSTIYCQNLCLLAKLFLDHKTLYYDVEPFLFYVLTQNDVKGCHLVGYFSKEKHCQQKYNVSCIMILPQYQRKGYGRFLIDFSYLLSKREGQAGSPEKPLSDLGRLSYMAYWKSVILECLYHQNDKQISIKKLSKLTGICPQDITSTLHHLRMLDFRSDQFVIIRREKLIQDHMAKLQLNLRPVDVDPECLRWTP

For `COc1ccc(C(C)(C)C)cc1S(=O)(=O)NC(=O)c1ccc(Cn2cccn2)c(=O)n1C` [Compound 278, 5-((1H-pyrazol-1-yl)methyl)-N-((5-(tert-butyl)-2-methoxyphenyl)sulfonyl)-1-methyl-6-oxo-1,6-dihydropyridine-2-carboxamide], the inhibition at 1 µM is 25%.

For orientation: pIC50 means −log10 of the IC50, conventionally taken in molar units. For `COc1cccc(OC2CC2)c1S(=O)(=O)NC(=O)c1ccc(Cn2cccn2)c(OC)n1` [Compound 279, 5-((1H-pyrazol-1-yl)methyl)-N-((2-cyclopropoxy-6-methoxyphenyl)sulfonyl)-6-methoxypicolinamide], the negative logarithm of the IC50 (pIC50) is 7.85.

Consider `COc1nc(C(=O)NS(=O)(=O)c2cc(C(C)(C)C)cc3c2OCC3)ccc1Cn1cccn1` [Compound 280, 5-((1H-pyrazol-1-yl)methyl)-N-((5-(tert-butyl)-2,3-dihydrobenzofuran-7-yl)sulfonyl)-6-methoxypicolinamide], for which the negative-log IC50 (pIC50) is 8.30.

On to `COc1ccc2c(c1S(=O)(=O)NC(=O)c1ccc(Cn3cccn3)c(OC)n1)OCO2` [Compound 281, 5-((1H-pyrazol-1-yl)methyl)-6-methoxy-N-((5-methoxybenzo[d][1,3]dioxol-4-yl)sulfonyl)picolinamide], for which the pIC50 was 8.00.

Take `COc1cc(F)cc(OC)c1S(=O)(=O)NC(=O)c1ccc(Cn2cccn2)c(OC)n1` [Compound 282, 5-((1H-pyrazol-1-yl)methyl)-N-((4-fluoro-2,6-dimethoxyphenyl)sulfonyl)-6-methoxypicolinamide]: the pIC50 is 7.85.

On to `COc1cc(Cl)cc(OC)c1S(=O)(=O)NC(=O)c1ccc(Cn2cccn2)c(OC)n1` [Compound 283, 5-((1H-pyrazol-1-yl)methyl)-N-((4-chloro-2,6-dimethoxyphenyl)sulfonyl)-6-methoxypicolinamide], for which the pIC50 is 8.00.

In the case of `CCOc1ccc(CC)c(OC)c1S(=O)(=O)NC(=O)c1ccc(Cn2cccn2)c(OC)n1` [Compound 284, 5-((1H-pyrazol-1-yl)methyl)-N-((6-ethoxy-3-ethyl-2-methoxyphenyl)sulfonyl)-6-methoxypicolinamide], the pIC50 is 8.00.

Regarding `COc1cc(Br)cc(OC)c1S(=O)(=O)NC(=O)c1ccc(Cn2cccn2)c(OC)n1` [Compound 285, 5-((1H-pyrazol-1-yl)methyl)-N-((4-bromo-2,6-dimethoxyphenyl)sulfonyl)-6-methoxypicolinamide], the pIC50 is 8.22.

For the molecule `COc1cc(C)c(S(=O)(=O)NC(=O)c2ccc(Cn3cccn3)c(OC)n2)c(OC)c1` [Compound 286, 5-((1H-pyrazol-1-yl)methyl)-N-((2,4-dimethoxy-6-methylphenyl)sulfonyl)-6-methoxypicolinamide], the pIC50 is 7.96.

As to `COc1nc(C(=O)NS(=O)(=O)c2cc(C(F)(F)F)cc3c2OCC3)ccc1Cn1cccn1` [Compound 287, 5-((1H-pyrazol-1-yl)methyl)-6-methoxy-N-((5-(trifluoromethyl)-2,3-dihydrobenzofuran-7-yl)sulfonyl)picolinamide], the negative-log IC50 (pIC50) is 7.96.

For `COc1cc(F)c(S(=O)(=O)NC(=O)c2ccc(Cn3cccn3)c(OC)n2)c(OC)c1` [Compound 288, 5-((1H-pyrazol-1-yl)methyl)-N-((2-fluoro-4,6-dimethoxyphenyl)sulfonyl)-6-methoxypicolinamide], the pIC50 is 8.10.

Regarding `CCOc1nc(C(=O)NS(=O)(=O)c2c(OC)cccc2OC)ccc1Cn1cccn1` [Compound 289, 5-((1H-pyrazol-1-yl)methyl)-N-((2,6-dimethoxyphenyl)sulfonyl)-6-ethoxypicolinamide], the pIC50 is 7.72.

`COc1ccc(C(C)(C)CO)cc1[S@](=N)(=O)NC(=O)c1ccc(Cn2cccn2)c(OC)n1` [Compound 290a, (R)-5-((1H-pyrazol-1-yl)methyl)-N-(5-(1-hydroxy-2-methylpropan-2-yl)-2-methoxyphenylsulfonimidoyl)-6-methoxypicolinamide]: the negative-log IC50 (pIC50) was 7.85.

Consider `COc1ccc(C(C)(C)CO)cc1[S@@](=N)(=O)NC(=O)c1ccc(Cn2cccn2)c(OC)n1` [Compound 290b, (S)-5-((1H-pyrazol-1-yl)methyl)-N-(5-(1-hydroxy-2-methylpropan-2-yl)-2-methoxyphenylsulfonimidoyl)-6-methoxypicolinamide], for which the negative logarithm of the IC50 (pIC50) was 7.48.

Turning to `COc1cc(C(=O)N[S@@](=N)(=O)c2cc(C(C)(C)CO)ccc2OC)ccc1Cn1cccn1` [Compound 291a, (R)-4-((1H-pyrazol-1-yl)methyl)-N-(5-(1-hydroxy-2-methylpropan-2-yl)-2-methoxyphenylsulfonimidoyl)-3-methoxybenzamide], the pIC50 is 7.03.

In the case of `COc1cc(C(=O)N[S@](=N)(=O)c2cc(C(C)(C)CO)ccc2OC)ccc1Cn1cccn1` [Compound 291b, (S)-4-((1H-pyrazol-1-yl)methyl)-N-(5-(1-hydroxy-2-methylpropan-2-yl)-2-methoxyphenylsulfonimidoyl)-3-methoxybenzamide], the pIC50 was 8.05.

On to `CN=S(=O)(NC(=O)c1ccc(Cn2cccn2)c(OC)c1)c1c(OC)cccc1OC` (centres unmarked) [Compound 292, 4-((1H-pyrazol-1-yl)methyl)-N-((2,6-dimethoxyphenyl)(methylamino)(oxo)-16-sulfaneylidene)-3-methoxybenzamide], for which the inhibition at 1 µM stood at 47%.

`COc1ccc(Cl)c(OC)c1[S@](=N)(=O)NC(=O)c1ccc(Cn2cccn2)c(OC)n1` [Compound 293a, (R)-5-((1H-pyrazol-1-yl)methyl)-N-(3-chloro-2,6-dimethoxyphenylsulfonimidoyl)-6-methoxypicolinamide]: the negative logarithm of the IC50 (pIC50) was 6.43.

For the molecule `COc1ccc(Cl)c(OC)c1[S@@](=N)(=O)NC(=O)c1ccc(Cn2cccn2)c(OC)n1` [Compound 293b, (S)-5-((1H-pyrazol-1-yl)methyl)-N-(3-chloro-2,6-dimethoxyphenylsulfonimidoyl)-6-methoxypicolinamide], the negative-log IC50 (pIC50) was 7.80.

With `CCOc1cccc(OC)c1[S@](=N)(=O)NC(=O)c1ccc(Cn2cccn2)c(OC)n1` [Compound 294a, (R)-5-((1H-pyrazol-1-yl)methyl)-N-(2-ethoxy-6-methoxyphenylsulfonimidoyl)-6-methoxypicolinamide], the pIC50 was 6.57.

Take `CCOc1cccc(OC)c1[S@@](=N)(=O)NC(=O)c1ccc(Cn2cccn2)c(OC)n1` [Compound 294b, (S)-5-((1H-pyrazol-1-yl)methyl)-N-(2-ethoxy-6-methoxyphenylsulfonimidoyl)-6-methoxypicolinamide]: the pIC50 is 7.66.

As for `COc1cc(C(=O)N[S@@](=N)(=O)c2c(OC)cccc2OC)ccc1Cn1cccn1` [Compound 295a, (R)-4-((1H-pyrazol-1-yl)methyl)-N-(2,6-dimethoxyphenylsulfonimidoyl)-3-methoxybenzamide], the pIC50 is 7.80.

On to `COc1cc(C(=O)N[S@](=N)(=O)c2c(OC)cccc2OC)ccc1Cn1cccn1` [Compound 295b, (S)-4-((1H-pyrazol-1-yl)methyl)-N-(2,6-dimethoxyphenylsulfonimidoyl)-3-methoxybenzamide], for which the negative-log IC50 (pIC50) was 6.57.

On to `COc1cc(OC)c([S@](=N)(=O)NC(=O)c2ccc(Cn3cccn3)c(OC)n2)c(OC)c1` [Compound 296a, (R)-5-((1H-pyrazol-1-yl)methyl)-6-methoxy-N-(2,4,6-trimethoxyphenylsulfonimidoyl)picolinamide], for which the pIC50 was 7.80.

Take `COc1cc(OC)c([S@@](=N)(=O)NC(=O)c2ccc(Cn3cccn3)c(OC)n2)c(OC)c1` [Compound 296b, (S)-5-((1H-pyrazol-1-yl)methyl)-6-methoxy-N-(2,4,6-trimethoxyphenylsulfonimidoyl)picolinamide]: the negative-log IC50 (pIC50) was 6.17.

For `COc1cccc(OC2CCC2)c1[S@](=N)(=O)NC(=O)c1ccc(Cn2cccn2)c(OC)n1` [Compound 298a, (R)-5-((1H-pyrazol-1-yl)methyl)-N-(2-cyclobutoxy-6-methoxyphenylsulfonimidoyl)-6-methoxypicolinamide], the pIC50 is 7.64.

Regarding `COc1cccc(OC2CCC2)c1[S@@](=N)(=O)NC(=O)c1ccc(Cn2cccn2)c(OC)n1` [Compound 298b, (S)-5-((1H-pyrazol-1-yl)methyl)-N-(2-cyclobutoxy-6-methoxyphenylsulfonimidoyl)-6-methoxypicolinamide], the pIC50 is 6.29.

As for `COc1cc(OC)c([S@](=N)(=O)NC(=O)c2ccc(Cn3cccn3)c(OC)c2)c(OC)c1` [Compound 299a, (R)-4-((1H-pyrazol-1-yl)methyl)-3-methoxy-N-(2,4,6-trimethoxyphenylsulfonimidoyl)benzamide], the pIC50 was 7.82.

In the case of `COc1cc(OC)c([S@@](=N)(=O)NC(=O)c2ccc(Cn3cccn3)c(OC)c2)c(OC)c1` [Compound 299b, (S)-4-((1H-pyrazol-1-yl)methyl)-3-methoxy-N-(2,4,6-trimethoxyphenylsulfonimidoyl)benzamide], the pIC50 is 6.65.

For the molecule `COc1cccc(OC)c1[S@](=N)(=O)NC(=O)c1ccc(Cn2cccn2)c(OC(F)(F)F)c1` [Compound 300a, (R)-4-((1H-pyrazol-1-yl)methyl)-N-(2,6-dimethoxyphenylsulfonimidoyl)-3-(trifluoromethoxy)benzamide], the pIC50 was 6.90.

On to `COc1cccc(OC)c1[S@@](=N)(=O)NC(=O)c1ccc(Cn2cccn2)c(OC(F)(F)F)c1` [Compound 300b, (S)-4-((1H-pyrazol-1-yl)methyl)-N-(2,6-dimethoxyphenylsulfonimidoyl)-3-(trifluoromethoxy)benzamide], for which the pIC50 was 7.74.

Turning to `COc1ccc(C)c(OC)c1[S@](=N)(=O)NC(=O)c1ccc(Cn2cccn2)c(OC)n1` [Compound 301a, (R)-5-((1H-pyrazol-1-yl)methyl)-N-(2,6-dimethoxy-3-methylphenylsulfonimidoyl)-6-methoxypicolinamide], the pIC50 is 6.50.

The values are drawn from patent US20250136553A1, “ACYLSULFONAMIDE KAT6A INHIBITORS” (Olema Pharmaceuticals, Inc., priority 2023, published 2025).
